Laboratory results reported in ChEMBL document CHEMBL5465560, “Selectivity Literature for EUbOPEN Chemogenomic Library” (2024).

Experiments:
[1] = molecular target: Phosphatidylinositol 4,5-bisphosphate 3-kinase catalytic subunit beta isoform (Homo sapiens) (UniProt P42338); assay: Selectivity interaction (KinomeScan (DiscoverX)) EUB0000229b PIK3CB; details: at 10 µM
[2] = molecular target: T1, Myosin light chain kinase family member 4 (Homo sapiens) (UniProt Q86YV6); assay: Selectivity interaction (KinomeScan (DiscoverX)) EUB0000695a MYLK4; details: at 100 nM
T1 sequence (whole entry): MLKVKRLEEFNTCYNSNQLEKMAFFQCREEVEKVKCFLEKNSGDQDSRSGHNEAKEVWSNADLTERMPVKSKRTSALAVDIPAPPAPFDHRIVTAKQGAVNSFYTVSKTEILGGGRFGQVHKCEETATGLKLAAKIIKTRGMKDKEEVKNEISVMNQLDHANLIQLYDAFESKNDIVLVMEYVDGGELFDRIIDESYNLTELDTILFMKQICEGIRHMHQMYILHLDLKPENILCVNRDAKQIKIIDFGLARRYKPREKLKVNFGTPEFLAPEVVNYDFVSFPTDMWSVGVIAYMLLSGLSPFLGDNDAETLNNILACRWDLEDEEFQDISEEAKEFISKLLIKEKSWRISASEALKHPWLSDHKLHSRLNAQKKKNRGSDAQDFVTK

[3] = molecular target: Cyclin-dependent kinase 4 (Homo sapiens, UniProt P11802); assay: Selectivity interaction (KinomeScan (DiscoverX)) EUB0001079a CDK4; details: at 1 µM
Chain of Cyclin-dependent kinase 4 (P11802 whole entry): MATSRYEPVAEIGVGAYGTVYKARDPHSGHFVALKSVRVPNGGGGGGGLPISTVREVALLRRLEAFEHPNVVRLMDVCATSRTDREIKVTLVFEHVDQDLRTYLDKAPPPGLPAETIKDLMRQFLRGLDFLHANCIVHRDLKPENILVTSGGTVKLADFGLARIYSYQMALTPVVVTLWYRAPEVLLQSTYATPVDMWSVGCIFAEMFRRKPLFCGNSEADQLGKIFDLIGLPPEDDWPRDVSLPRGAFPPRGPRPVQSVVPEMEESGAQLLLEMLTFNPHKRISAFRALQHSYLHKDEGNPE

[4] = molecular target: T2, Mitogen-activated protein kinase kinase kinase 19 (Homo sapiens) (UniProt Q56UN5); assay: Selectivity interaction (KinomeScan (DiscoverX)) EUB0001079a MAP3K19; details: at 1 µM
T2 sequence (whole entry): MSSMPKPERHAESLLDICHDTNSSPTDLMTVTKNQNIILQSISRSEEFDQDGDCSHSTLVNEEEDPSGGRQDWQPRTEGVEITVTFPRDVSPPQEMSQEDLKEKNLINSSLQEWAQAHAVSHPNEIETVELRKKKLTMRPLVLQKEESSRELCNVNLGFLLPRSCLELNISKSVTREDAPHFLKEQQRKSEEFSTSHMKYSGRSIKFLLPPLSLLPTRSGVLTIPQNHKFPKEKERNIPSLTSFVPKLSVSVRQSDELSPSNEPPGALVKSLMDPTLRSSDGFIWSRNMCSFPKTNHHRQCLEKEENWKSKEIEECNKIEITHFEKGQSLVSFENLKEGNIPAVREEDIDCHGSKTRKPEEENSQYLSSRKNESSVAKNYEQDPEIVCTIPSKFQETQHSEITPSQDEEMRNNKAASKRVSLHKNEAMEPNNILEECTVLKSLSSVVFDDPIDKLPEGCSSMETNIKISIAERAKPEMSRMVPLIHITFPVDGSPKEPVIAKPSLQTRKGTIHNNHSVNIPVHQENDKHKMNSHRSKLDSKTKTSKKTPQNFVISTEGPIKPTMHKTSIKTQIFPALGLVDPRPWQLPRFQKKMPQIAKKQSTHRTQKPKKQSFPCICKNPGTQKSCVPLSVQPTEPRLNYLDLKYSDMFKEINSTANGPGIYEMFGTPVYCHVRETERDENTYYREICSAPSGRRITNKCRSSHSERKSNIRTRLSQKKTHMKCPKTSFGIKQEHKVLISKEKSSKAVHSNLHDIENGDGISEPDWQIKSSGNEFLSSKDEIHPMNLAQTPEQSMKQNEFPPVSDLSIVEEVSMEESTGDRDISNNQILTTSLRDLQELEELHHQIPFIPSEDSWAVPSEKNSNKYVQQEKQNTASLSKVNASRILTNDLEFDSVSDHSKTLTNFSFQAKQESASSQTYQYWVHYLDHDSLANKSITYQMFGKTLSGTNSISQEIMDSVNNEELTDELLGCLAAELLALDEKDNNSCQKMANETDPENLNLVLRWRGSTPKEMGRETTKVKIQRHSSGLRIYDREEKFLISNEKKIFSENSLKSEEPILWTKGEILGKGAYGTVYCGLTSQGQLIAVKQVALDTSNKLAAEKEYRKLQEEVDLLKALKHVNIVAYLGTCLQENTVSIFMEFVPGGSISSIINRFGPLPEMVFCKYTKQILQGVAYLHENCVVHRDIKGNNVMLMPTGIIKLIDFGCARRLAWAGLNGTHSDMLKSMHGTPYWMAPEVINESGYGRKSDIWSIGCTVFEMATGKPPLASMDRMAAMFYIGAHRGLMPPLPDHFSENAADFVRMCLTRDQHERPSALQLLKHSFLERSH

[5] = molecular target: Tyrosine-protein kinase JAK2 (Homo sapiens, UniProt O60674); assay: Selectivity interaction (KinomeScan (DiscoverX)) EUB0000666a JAK2; details: at 10 µM
Chain of Tyrosine-protein kinase JAK2 (O60674 whole entry): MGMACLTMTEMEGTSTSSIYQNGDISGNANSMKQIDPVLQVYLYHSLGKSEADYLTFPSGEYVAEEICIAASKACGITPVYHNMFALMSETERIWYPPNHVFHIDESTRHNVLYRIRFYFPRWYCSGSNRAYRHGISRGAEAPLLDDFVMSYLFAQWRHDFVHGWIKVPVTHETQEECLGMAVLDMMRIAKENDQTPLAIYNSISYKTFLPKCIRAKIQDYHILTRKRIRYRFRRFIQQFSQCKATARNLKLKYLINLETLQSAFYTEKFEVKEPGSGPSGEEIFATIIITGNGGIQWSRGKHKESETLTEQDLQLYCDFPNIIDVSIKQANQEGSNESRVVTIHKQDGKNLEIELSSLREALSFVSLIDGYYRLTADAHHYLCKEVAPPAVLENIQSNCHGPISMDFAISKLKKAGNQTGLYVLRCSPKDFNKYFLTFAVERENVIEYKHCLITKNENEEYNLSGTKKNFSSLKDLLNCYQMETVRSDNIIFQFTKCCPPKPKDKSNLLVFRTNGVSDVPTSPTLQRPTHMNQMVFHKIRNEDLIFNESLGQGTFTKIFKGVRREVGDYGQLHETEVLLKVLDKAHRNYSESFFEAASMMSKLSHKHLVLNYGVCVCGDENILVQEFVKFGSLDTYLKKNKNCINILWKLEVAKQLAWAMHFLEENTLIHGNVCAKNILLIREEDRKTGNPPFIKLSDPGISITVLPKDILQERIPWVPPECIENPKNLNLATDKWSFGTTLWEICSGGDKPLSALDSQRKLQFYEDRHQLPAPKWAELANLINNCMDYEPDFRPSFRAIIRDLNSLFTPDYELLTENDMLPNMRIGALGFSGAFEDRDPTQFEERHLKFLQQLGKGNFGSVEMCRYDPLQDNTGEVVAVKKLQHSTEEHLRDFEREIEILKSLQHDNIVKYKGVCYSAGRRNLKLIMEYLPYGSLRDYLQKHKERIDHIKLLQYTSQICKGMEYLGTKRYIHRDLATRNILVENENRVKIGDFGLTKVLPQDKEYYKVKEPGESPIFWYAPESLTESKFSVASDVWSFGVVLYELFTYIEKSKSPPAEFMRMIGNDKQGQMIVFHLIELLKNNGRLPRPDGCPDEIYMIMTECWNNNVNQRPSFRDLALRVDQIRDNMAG

Aurora kinase B = Aurora kinase B (Homo sapiens, UniProt Q96GD4); details: at 10 µM
Chain of Aurora kinase B (Q96GD4 whole entry): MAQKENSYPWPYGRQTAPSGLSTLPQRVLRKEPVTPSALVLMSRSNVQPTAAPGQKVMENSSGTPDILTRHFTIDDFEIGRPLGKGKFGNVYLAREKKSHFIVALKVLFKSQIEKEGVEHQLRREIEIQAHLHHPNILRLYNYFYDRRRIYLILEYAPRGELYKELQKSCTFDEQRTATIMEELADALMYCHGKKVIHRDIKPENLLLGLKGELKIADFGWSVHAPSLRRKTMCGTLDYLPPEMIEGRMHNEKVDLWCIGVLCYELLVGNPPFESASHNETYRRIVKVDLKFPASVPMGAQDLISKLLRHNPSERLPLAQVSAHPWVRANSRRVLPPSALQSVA

[6] = molecular target: Mitogen-activated protein kinase 9 (Homo sapiens, UniProt P45984); details: at 10 µM
Chain of Mitogen-activated protein kinase 9 (P45984 whole entry, looked up): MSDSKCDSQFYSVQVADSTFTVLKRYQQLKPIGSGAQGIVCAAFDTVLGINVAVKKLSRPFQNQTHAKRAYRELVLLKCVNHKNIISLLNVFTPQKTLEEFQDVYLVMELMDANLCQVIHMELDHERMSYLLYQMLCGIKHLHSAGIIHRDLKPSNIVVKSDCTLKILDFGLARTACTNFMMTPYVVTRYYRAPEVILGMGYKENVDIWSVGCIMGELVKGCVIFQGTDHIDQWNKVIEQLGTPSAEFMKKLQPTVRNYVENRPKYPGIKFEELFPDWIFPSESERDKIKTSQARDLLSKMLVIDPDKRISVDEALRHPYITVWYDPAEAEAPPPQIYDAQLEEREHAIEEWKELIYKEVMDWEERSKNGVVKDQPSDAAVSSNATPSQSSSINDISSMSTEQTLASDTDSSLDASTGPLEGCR

[7] = molecular target: Serine/threonine-protein kinase pim-2 (Homo sapiens, UniProt Q9P1W9); assay: Selectivity interaction (Kinase screening (Nanosyn)) EUB0000604a PIM2
Chain of Serine/threonine-protein kinase pim-2 (Q9P1W9 whole entry, looked up): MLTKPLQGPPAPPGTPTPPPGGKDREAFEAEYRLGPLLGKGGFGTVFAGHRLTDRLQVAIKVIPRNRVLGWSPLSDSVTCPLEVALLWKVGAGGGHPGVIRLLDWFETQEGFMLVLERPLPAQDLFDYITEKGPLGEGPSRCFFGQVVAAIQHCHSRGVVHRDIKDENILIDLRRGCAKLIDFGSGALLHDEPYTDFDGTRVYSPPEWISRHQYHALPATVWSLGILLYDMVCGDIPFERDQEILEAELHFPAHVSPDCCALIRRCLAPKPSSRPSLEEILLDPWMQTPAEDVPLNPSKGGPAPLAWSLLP

[8] = molecular target: T3, Serine/threonine-protein kinase 17B (Homo sapiens) (UniProt O94768); assay: Selectivity interaction (KinomeScan (DiscoverX)) EUB0001619a STK17B; details: at 1 µM
T3 sequence (whole entry): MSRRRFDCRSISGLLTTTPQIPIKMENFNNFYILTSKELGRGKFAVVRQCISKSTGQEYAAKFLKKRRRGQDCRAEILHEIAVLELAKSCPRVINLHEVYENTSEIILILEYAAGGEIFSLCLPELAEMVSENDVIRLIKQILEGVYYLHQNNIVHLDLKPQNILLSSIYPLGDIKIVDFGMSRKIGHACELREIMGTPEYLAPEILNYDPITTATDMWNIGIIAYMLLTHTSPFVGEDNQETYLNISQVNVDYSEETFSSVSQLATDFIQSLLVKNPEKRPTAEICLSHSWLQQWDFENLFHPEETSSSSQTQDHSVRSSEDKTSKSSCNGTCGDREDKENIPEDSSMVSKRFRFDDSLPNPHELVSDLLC

Chain of Phosphatidylinositol 4,5-bisphosphate 3-kinase catalytic subunit beta isoform (Homo sapiens) (P42338 whole entry, looked up, canonical isoform): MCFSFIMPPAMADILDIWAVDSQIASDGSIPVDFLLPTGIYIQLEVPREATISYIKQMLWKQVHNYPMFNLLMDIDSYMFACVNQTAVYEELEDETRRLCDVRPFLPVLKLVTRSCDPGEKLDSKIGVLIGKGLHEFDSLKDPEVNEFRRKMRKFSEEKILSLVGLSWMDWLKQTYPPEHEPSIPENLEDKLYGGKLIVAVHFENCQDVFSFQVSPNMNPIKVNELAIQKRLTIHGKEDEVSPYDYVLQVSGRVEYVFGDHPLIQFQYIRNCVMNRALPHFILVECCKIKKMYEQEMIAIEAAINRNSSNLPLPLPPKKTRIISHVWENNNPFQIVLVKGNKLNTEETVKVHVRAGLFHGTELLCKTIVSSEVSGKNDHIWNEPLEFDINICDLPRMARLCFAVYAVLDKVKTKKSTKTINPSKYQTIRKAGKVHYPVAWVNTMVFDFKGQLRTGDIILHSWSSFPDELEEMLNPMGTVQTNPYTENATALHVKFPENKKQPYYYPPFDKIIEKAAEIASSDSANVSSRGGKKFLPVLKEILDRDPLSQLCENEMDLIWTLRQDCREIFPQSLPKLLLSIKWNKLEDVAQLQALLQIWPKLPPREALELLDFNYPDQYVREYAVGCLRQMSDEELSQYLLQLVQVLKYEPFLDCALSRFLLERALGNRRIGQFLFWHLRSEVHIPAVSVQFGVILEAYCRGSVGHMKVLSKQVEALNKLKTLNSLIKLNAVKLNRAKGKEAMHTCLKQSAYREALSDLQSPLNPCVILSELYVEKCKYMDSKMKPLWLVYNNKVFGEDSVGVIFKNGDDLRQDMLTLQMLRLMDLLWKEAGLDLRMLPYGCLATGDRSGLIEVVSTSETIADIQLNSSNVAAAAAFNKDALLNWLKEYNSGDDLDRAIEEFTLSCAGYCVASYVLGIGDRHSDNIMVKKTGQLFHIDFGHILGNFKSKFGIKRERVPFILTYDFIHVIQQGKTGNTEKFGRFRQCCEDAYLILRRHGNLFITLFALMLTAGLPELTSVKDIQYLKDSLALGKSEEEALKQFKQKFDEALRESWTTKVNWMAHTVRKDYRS

Q: COc1cc(N(C)c2ccnc3ccc(C(F)(F)F)cc23)cc(OC)c1OC was tested. Which % binding [1] did it give?
A: Its % binding is 63%.

Q: Which % of control [2] does the source give for Cc1cc(F)c(C(=O)Nc2cccc(-c3nncn3C(C)C)n2)cc1-n1cnc(C2CC2)c1 here?
A: The % of control was 100%.

Q: Nc1cnc(N2CCc3cc(S(=O)(=O)Nc4c(F)cc(Cl)cc4F)cc(N4CCCC4=O)c32)nc1 [TP-020n] was tested. Which % of control [3] did it give?
A: The % of control was 97%.

Q: What about the % of control [4] of the same compound?
A: The % of control was 100%.

Q: For O=C(NOC[C@H](O)CO)c1ccc(F)c(F)c1Nc1ccc(I)cc1F, which % of control [5] is on record?
A: Its % of control is 100%.

Q: Cc1cc([C@@H](C)Nc2ccccc2C(=O)O)c2nc(N3CCOCC3)cc(=O)n2c1 [AZD-6482] was tested. Which % of control (Aurora kinase B) did it give?
A: Its % of control is 96%.

Q: What about the % of control [6] of the same compound?
A: The % of control was 66%.

Q: Which % of inhibition [7] does the source give for Cc1cnc(Nc2ccc(F)cc2Cl)nc1-c1c[nH]c(C(=O)N[C@H](CO)c2cccc(Cl)c2)c1 here?
A: The % of inhibition was 3%.

Q: Which % of control [8] does the source give for N#Cc1cccc(-c2c[nH]c3ncnc(N4CCOCC4)c23)c1 here?
A: The % of control was 100%.
